≈ marks a conversion by molar mass, not a printed value. Bounds are passed on as bounds.

For this data set the following is noted: buffer; pH 7.4; 200.0 µM.
Turning to `Cc1csc(SCC(=O)NC(C)c2ccc(F)cc2)n1` (stereo unspecified), the kinetic solubility turned out to be 38.8 µg/mL (≈ 125 µM).
Take `NS(=O)(=O)c1ccc(NC(=O)/C=C/c2cccc(Cl)c2)cc1`: the kinetic solubility was 1.4 µg/mL (≈ 4.16 µM).
The figure for `O=C(/C=C/c1cccs1)NCc1ccc2c(c1)OCO2` is 6.3 µg/mL (≈ 21.9 µM); for `O=S(=O)(Nc1ccncc1)c1cc(Cl)ccc1Cl` it is 21.2 µg/mL (≈ 69.9 µM).
The figure for `CCC(=O)Nc1ccc(OCC2CCCO2)cc1` (stereo unspecified) is 35.6 µg/mL (≈ 143 µM); for `Cc1ccc(N=C2C(=O)Nc3ccccc32)cc1` it is 30.5 µg/mL (≈ 129 µM); for `COC(=O)c1sccc1NC(=O)Nc1ccc(OC)cc1` it is 40 µg/mL (≈ 131 µM).
The figure for `CC(C)(C)NC(=O)c1cccnc1Sc1ccccc1` is more than 43 µg/mL.
Consider `Cc1ccnc(N2CCC(C(=O)NNC(=O)c3ccncc3)CC2)n1`, for which the kinetic solubility was more than 51.1 µg/mL.
With `CC1(C)Cn2c(nc(=O)c3c2NCN(CCc2ccccc2)C3)S1` the figure was more than 51.4 µg/mL; with `O=C(O)C1CCCN1C(=O)C12CC3CC(CC(C3)C1)C2` (stereo unspecified), more than 41.6 µg/mL; with `O=C(Nc1cccc(NC(=O)c2ccccc2F)c1)c1ccccc1`, 0.9 µg/mL (≈ 2.69 µM).
With `O=C(/C=C/c1ccco1)NC(=S)Nc1ccc(C(=O)O)cc1` the figure was more than 47.4 µg/mL; with `COc1ccc(Cn2cc(F)c(=O)n(C)c2=O)cc1[N+](=O)[O-]`, 42.8 µg/mL (≈ 138 µM).
`CCCC(=O)OCC(=O)Nc1ccc([N+](=O)[O-])cc1C#N` came in with a kinetic solubility of more than 43.7 µg/mL.
The figure for `CC(=O)N/C(=C\c1ccccc1)C(=O)OCc1ccc(F)cc1` is 43.4 µg/mL (≈ 139 µM).
With `CC(C)c1ccc2nc(SCC(=O)NCC3CCCO3)c(C#N)cc2c1` (stereo unspecified) the figure was 2.4 µg/mL (≈ 6.5 µM).
The figure for `OCc1nc2ccc(Cl)cc2[nH]1` is more than 27.4 µg/mL.
In turn, `CCCC(C)NC(=S)Nc1cc(C)cc(C)c1` (stereo unspecified) yielded a kinetic solubility of 25.2 µg/mL (≈ 101 µM).
The figure for `COc1ccccc1Oc1nc([N+](=O)[O-])nn1CC(N)=O` is more than 44 µg/mL; for `O=C1CC(N2CCSCC2)C(=O)N1c1ccc(Br)cc1` (stereo unspecified) it is more than 53.3 µg/mL.
With `CCOc1cc(C(=S)N2CCCC2)ccc1OC` the figure was more than 39.8 µg/mL.
With `Cc1cc(NC(=O)COc2ccc(C(C)(C)C)cc2)no1` the figure was 2 µg/mL (≈ 6.94 µM); with `COc1ccc(NC(=O)c2cc(-c3ccccc3Cl)on2)cc1`, less than 0.4 µg/mL.
In the case of `O=C(COC(=O)c1ccccc1Br)Nc1ccc(F)cc1`, the solubility (kinetic) was 28.7 µg/mL (≈ 81.5 µM).
With `O=C(Nc1ccccc1C(F)(F)F)N1CCN(c2ccccn2)CC1` the figure was 49.9 µg/mL (≈ 142 µM); with `O=C(COC(=O)c1cccnc1Cl)NC(=O)c1ccc(OC(F)F)cc1`, 10.1 µg/mL (≈ 26.3 µM).
The figure for `Cc1ccccc1N1CCN(Cc2nc(Cc3ccccc3)no2)CC1` is 11 µg/mL (≈ 31.6 µM).
The figure for `O=c1c2ccccc2nc(/C=C/c2ccccn2)n1-c1ccccc1` is 0.6 µg/mL (≈ 1.84 µM); for `O=C(c1cccc(NS(=O)(=O)c2ccccc2)c1)N1CCCC1` it is 43.9 µg/mL (≈ 133 µM); for `O=C(Nc1ccncc1)Nc1cccc(C(F)(F)F)c1` it is 5.4 µg/mL (≈ 19.2 µM).
Take `O=C(NCCc1ccccc1)C1CCC(=O)N1CCc1ccccc1` (stereo unspecified): the kinetic solubility is 46.2 µg/mL (≈ 137 µM).
The figure for `O=[N+]([O-])c1cc(Cl)ccc1Sc1ccccn1` is 23.3 µg/mL (≈ 87.4 µM); for `O=C1Nc2ccccc2C1Cc1nc2ccccc2c(=O)n1-c1ccccc1` (stereo unspecified) it is 55.1 µg/mL (≈ 150 µM); for `CCC(C(=O)Nc1ccc(Cl)cc1)N1CCCC1=O` (stereo unspecified) it is 41.3 µg/mL (≈ 147 µM).
`COc1ccc(Cl)cc1NC(=O)CNc1ccccc1N1CCOCC1` had a kinetic solubility of less than 0.3 µg/mL.
The figure for `O=C(CSc1nnc2ccccn12)NC(=O)c1ccccc1Cl` is more than 52 µg/mL.
The figure for `COC(=O)c1cc(S(=O)(=O)NC2CCCCC2)cn1C` is 42 µg/mL (≈ 140 µM); for `Cl.Clc1ccccc1CNCc1ccncc1` it is 38.9 µg/mL.
In turn, `CCOC(=O)Cc1csc(NC(=O)CC(C)(C)CC(=O)O)n1` came in with a kinetic solubility of more than 49.3 µg/mL.
The figure for `CC(CNC(=O)COC(=O)c1ccco1)c1ccccc1` (stereo unspecified) is more than 43.1 µg/mL.
With `CC(C)c1ccc(OCc2ccc(C(=O)N(C)C)o2)cc1` the figure was 33.2 µg/mL (≈ 116 µM); with `CCOC(=O)c1nc(-c2ccccc2)sc1C(C)=O`, 35.9 µg/mL (≈ 130 µM).
The figure for `CC(CC(=O)OCC(=O)NC1CCS(=O)(=O)C1)c1ccccc1` (stereo unspecified) is more than 50.9 µg/mL; for `c1ccc(-c2csc3ncnc(NCc4ccccn4)c23)cc1` it is 40.1 µg/mL (≈ 126 µM).
Compound `CCOC(=O)c1ccc(C(=S)N2CCCC2)cc1` came in with a solubility (kinetic) of 37.3 µg/mL (≈ 142 µM).
`CCc1ccc(NC(=O)C2C3CCC(O3)C2C(=O)O)cc1` (stereo unspecified) gave a kinetic solubility of 39.3 µg/mL (≈ 136 µM).
The figure for `NC(=O)N1c2ccccc2C=Cc2ccccc21` is more than 35.4 µg/mL; for `Cc1cccnc1NC(=O)c1ccc(C(=O)c2ccccc2)cc1` it is 42.5 µg/mL (≈ 134 µM); for `Cn1c(COc2ccccc2)nc2ccccc21` it is 23.2 µg/mL (≈ 97.4 µM).
Compound `Oc1ccc2ccccc2c1CNc1ccc(Br)cn1` came in with a solubility (kinetic) of 1.9 µg/mL (≈ 5.77 µM).
Compound `Cc1ccc2[nH]c(O)c(N=O)c2c1` registered a solubility (kinetic) of more than 26.4 µg/mL.
With `NC(=S)Cc1ccccc1Cl` the figure was 25.2 µg/mL (≈ 136 µM).
Compound `O=C(c1ccc(F)cc1)N1CCC(C(=O)N2CCN(c3ncccn3)CC2)CC1` gave a kinetic solubility of 59.2 µg/mL (≈ 149 µM).
The figure for `O=[N+]([O-])c1ccccc1S(=O)(=O)NCCc1ccncc1` is 43.8 µg/mL (≈ 143 µM); for `O=C(CN1C(=O)c2cccc([N+](=O)[O-])c2C1=O)NNC(=O)c1ccc(F)cc1` it is more than 57.9 µg/mL.
The figure for `Cc1cc(C)c(NC(=O)COC(=O)C2CCC2)c(Cl)c1` is 42.2 µg/mL (≈ 143 µM); for `COc1ccc(CCNCc2ccsc2)cc1OC` it is 37.1 µg/mL (≈ 134 µM).
The figure for `CCN(c1ccccc1)S(=O)(=O)c1ccc(C(=O)NCc2ccco2)cc1` is 32 µg/mL (≈ 83.2 µM); for `O=C(c1ccc2ccccc2c1)N1CCN(c2ccccn2)CC1` it is 47.5 µg/mL (≈ 150 µM); for `N#Cc1cccnc1N1CCN(C(=O)c2cccs2)CC1` it is more than 44.8 µg/mL.
In turn, `CCOC(=O)CNC(=O)c1cccnc1Oc1ccc(Cl)cc1` showed a kinetic solubility of 20.2 µg/mL (≈ 60.3 µM).
The compound `COc1ccc(CCNC(=O)CCCc2ccccc2)cc1` displayed a solubility (kinetic) of 35.6 µg/mL (≈ 120 µM).
With `O=C1OC(CCl)CN1Cc1c(Cl)cccc1Cl` (stereo unspecified) the figure was 41.9 µg/mL (≈ 142 µM); with `Cn1ncc([N+](=O)[O-])c1C(=O)Nc1ccccc1C(=O)O`, more than 43.5 µg/mL.
With `Cc1cccc(CSc2nc3c(c(=O)n2C)SCC3)c1` the figure was 11.6 µg/mL (≈ 38.1 µM); with `O=C(CSc1ncccn1)N1CCC(Cc2ccccc2)CC1`, more than 49.1 µg/mL.
On to `O=[N+]([O-])/C(C(Cl)=C(Cl)Cl)=C1\Nc2ccccc2O1`, for which the solubility (kinetic) was more than 46.1 µg/mL.
With `CC(C#N)Sc1nnc(-c2ccccc2F)n1C1CC1` (stereo unspecified) the figure was more than 43.3 µg/mL; with `C=CCN=C1S/C(=C\c2ccc(N(C)C)cc2)C(=O)N1CC=C`, 5.5 µg/mL (≈ 16.8 µM); with `CCCN(Cc1ccccc1)C(=S)Nc1ccc(OCC)cc1`, 17.9 µg/mL (≈ 54.5 µM).
`CC(C)n1c(N)c(C#N)c2ccc([N+](=O)[O-])cc2c1=O`: the solubility (kinetic) amounted to 1.6 µg/mL (≈ 5.88 µM).
With `N#Cc1ccccc1OCC(=O)OCC(=O)NC1CC1` the figure was more than 41.1 µg/mL; with `C=CCNC(=O)NC(=O)c1csc([N+](=O)[O-])c1`, 2 µg/mL (≈ 7.84 µM); with `CCc1ccccc1Nc1nc2ccccc2[nH]1`, 33.2 µg/mL (≈ 140 µM).
With `O=C(NC1(C(F)(F)F)NC(=O)N(C2CCCCC2)C1=O)C1CC1` (stereo unspecified) the figure was more than 50 µg/mL.
